Reference: the NIST ThermoML archive (doi:10.1021/acs.jced.8b00157)
Where “and” joins values, the source holds several entries; their conditions need not be identical. Equal entries are not always repeated.

Assay: an = ratio of the nth substance listed
Settings: 100 kPa, Liquid, Buoyancy - hydrostatic balance

[F][Al]([F])[F] [aluminum fluoride] + [F-].[K+]
Settings	mass density
1123.5 K, a2 = 1.5	1749 kg/m3
1124 K, a2 = 1.5	1748 kg/m3
1124.4 K, a2 = 1.5	1748 kg/m3
1124.9 K, a2 = 1.5	1747 kg/m3
1125.1 K, a2 = 1.5	1747 kg/m3
1125.7 K, a2 = 1.5	1747 kg/m3
1126.2 K, a2 = 1.5	1747 kg/m3
1126.6 K, a2 = 1.5	1746 kg/m3
1127 K, a2 = 1.5	1746 kg/m3
1127.4 K, a2 = 1.5	1746 kg/m3
1127.8 K, a2 = 1.5	1745 kg/m3
1128.2 K, a2 = 1.5	1745 kg/m3
1128.6 K, a2 = 1.5	1745 kg/m3
1128.9 K, a2 = 1.5	1745 kg/m3
1129.6 K, a2 = 1.5	1744 kg/m3
1129.8 K, a2 = 1.5	1744 kg/m3
1130.3 K, a2 = 1.5	1743 kg/m3
1130.8 K, a2 = 1.5	1743 kg/m3
1131 K, a2 = 1.5	1743 kg/m3
1131.5 K, a2 = 1.5	1742 kg/m3
1132 K, a2 = 1.5	1742 kg/m3
1132.3 K, a2 = 1.5	1742 kg/m3
1132.7 K, a2 = 1.5	1742 kg/m3
1133.2 K, a2 = 1.5	1741 kg/m3
1133.6 K, a2 = 1.5	1741 kg/m3
1134 K, a2 = 1.5	1741 kg/m3
1134.3 K, a2 = 1.5	1740 kg/m3
1134.8 K, a2 = 1.5	1740 kg/m3
1135.2 K, a2 = 1.5	1740 kg/m3
1135.6 K, a2 = 1.5	1739 kg/m3
1136.1 K, a2 = 1.5	1739 kg/m3
1163.2 K, a2 = 1.7	1864 kg/m3
1163.3 K, a2 = 1.7	1864 kg/m3
1163.4 K, a2 = 1.7	1864 kg/m3
1163.6 K, a2 = 1.7	1863 kg/m3
1164.4 K, a2 = 1.7	1863 kg/m3
1165 K, a2 = 1.7	1864 kg/m3
1165.1 K, a2 = 1.7	1863 kg/m3
1165.3 K, a2 = 1.7	1862 kg/m3 and 1863 kg/m3
1165.4 K, a2 = 1.7	1863 kg/m3
1166.1 K, a2 = 1.7	1861 kg/m3
1166.2 K, a2 = 1.7	1861 kg/m3
1166.4 K, a2 = 1.7	1862 kg/m3
1166.6 K, a2 = 1.7	1862 kg/m3
1166.8 K, a2 = 1.7	1861 kg/m3
1167 K, a2 = 1.7	1860 kg/m3
1167.3 K, a2 = 1.7	1860 kg/m3 and 1861 kg/m3
1167.5 K, a2 = 1.7	1860 kg/m3
1167.6 K, a2 = 1.7	1861 kg/m3
1168.2 K, a2 = 1.7	1860 kg/m3
1168.6 K, a2 = 1.7	1859 kg/m3
1169.1 K, a2 = 1.7	1860 kg/m3 and 1859 kg/m3
1169.2 K, a2 = 1.7	1859 kg/m3
1169.4 K, a2 = 1.7	1858 kg/m3
1169.6 K, a2 = 1.7	1858 kg/m3
1169.7 K, a2 = 1.7	1858 kg/m3
1169.8 K, a2 = 1.7	1858 kg/m3
1170.3 K, a2 = 1.7	1857 kg/m3
1170.5 K, a2 = 1.7	1857 kg/m3
1170.6 K, a2 = 1.7	1857 kg/m3
1171.1 K, a2 = 1.7	1857 kg/m3
1172 K, a2 = 1.7	1856 kg/m3 and 1857 kg/m3
1172.2 K, a2 = 1.7	1855 kg/m3
1172.7 K, a2 = 1.7	1856 kg/m3
1173.3 K, a2 = 1.7	1856 kg/m3
1173.8 K, a2 = 1.7	1854 kg/m3
1174 K, a2 = 1.7	1855 kg/m3
1174.1 K, a2 = 1.7	1855 kg/m3 and 1854 kg/m3
1174.5 K, a2 = 1.7	1853 kg/m3
1174.6 K, a2 = 1.7	1854 kg/m3
1174.9 K, a2 = 1.7	1855 kg/m3
1175.1 K, a2 = 1.7	1852 kg/m3 and 1854 kg/m3
1175.4 K, a2 = 1.7	1854 kg/m3
1175.6 K, a2 = 1.7	1854 kg/m3
1175.8 K, a2 = 1.7	1853 kg/m3
1175.9 K, a2 = 1.7	1852 kg/m3
1176 K, a2 = 1.7	1852 kg/m3 and 1853 kg/m3
1176.8 K, a2 = 1.7	1851 kg/m3
1177.3 K, a2 = 1.7	1851 kg/m3
1177.5 K, a2 = 1.7	1852 kg/m3
1177.8 K, a2 = 1.7	1851 kg/m3
1177.9 K, a2 = 1.7	1852 kg/m3
1178.2 K, a2 = 1.7	1851 kg/m3
1178.3 K, a2 = 1.7	1851 kg/m3
1178.4 K, a2 = 1.7	1850 kg/m3
1179.5 K, a2 = 1.7	1849 kg/m3
1179.7 K, a2 = 1.7	1849 kg/m3
1179.8 K, a2 = 1.7	1850 kg/m3
1179.9 K, a2 = 1.7	1849 kg/m3
1180 K, a2 = 1.7	1850 kg/m3
1180.2 K, a2 = 1.7	1848 kg/m3
1180.4 K, a2 = 1.7	1849 kg/m3
1180.7 K, a2 = 1.7	1849 kg/m3
1181 K, a2 = 1.7	1848 kg/m3
1181.4 K, a2 = 1.7	1849 kg/m3
1181.5 K, a2 = 1.7	1848 kg/m3
1181.8 K, a2 = 1.7	1847 kg/m3
1182.4 K, a2 = 1.7	1846 kg/m3 and 1847 kg/m3 and 1848 kg/m3
1182.6 K, a2 = 1.7	1847 kg/m3
1182.7 K, a2 = 1.7	1847 kg/m3
1183.2 K, a2 = 1.7	1846 kg/m3
1183.6 K, a2 = 1.7	1846 kg/m3
1183.8 K, a2 = 1.7	1846 kg/m3
1184.2 K, a2 = 1.7	1846 kg/m3
1184.3 K, a2 = 1.7	1845 kg/m3
1184.6 K, a2 = 1.7	1846 kg/m3
1184.8 K, a2 = 1.7	1845 kg/m3
1184.9 K, a2 = 1.7	1845 kg/m3
1185.1 K, a2 = 1.7	1845 kg/m3
1185.4 K, a2 = 1.7	1844 kg/m3
1185.7 K, a2 = 1.7	1844 kg/m3
1186.3 K, a2 = 1.7	1843 kg/m3
1186.4 K, a2 = 1.7	1844 kg/m3
1186.5 K, a2 = 1.7	1844 kg/m3
1186.8 K, a2 = 1.7	1843 kg/m3
1186.9 K, a2 = 1.7	1843 kg/m3
1187.8 K, a2 = 1.7	1843 kg/m3 and 1842 kg/m3 and 1842 kg/m3
1188.1 K, a2 = 1.7	1842 kg/m3
